Laboratory results as given in PubChem BioAssay AID248 (DTP/NCI, 2004).
Several values for one entry are separate records, joined by “and”; a condition that tells them apart may be missing. Equal values may be shown once. Inconclusive results and toxic doses are left out. Cut-off read from the data, not from the text of the source: active = T/C of 150% or more; inactive = T/C below 125%.

System: L1210 leukemia ip in BDF1 mice, survival T/C
Assay: NCI In Vivo Anticancer Drug Screen. Data for tumor model L1210 Leukemia (intraperitoneal) in B6D2F1 (BDF1) mice
Settings: endpoint: mean survival time, higher = longer survival
Outline: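 Mice bearing the transplanted tumor received compound or vehicle. Survival of the treated group was divided by that of the vehicle-treated control group to give the ratio.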

[1] = dose: 50.0 mg/kg/injection, schedule: Q01DX009 (ip), vehicle: saline with Tween-80
[2] = dose: 100.0 mg/kg/injection, schedule: Q04DX002 (ip), vehicle: saline with Tween-80
[3] = dose: 200.0 mg/kg/injection, schedule: Q04DX002 (ip), vehicle: saline with Tween-80
[4] = dose: 100.0 mg/kg/injection, schedule: Q01DX009 (ip), vehicle: Klucel (hydroxypropylcellulose) (HPC)
[5] = dose: 200.0 mg/kg/injection, schedule: Q01DX009 (ip), vehicle: Klucel (hydroxypropylcellulose) (HPC)
[6] = dose: 400.0 mg/kg/injection, schedule: Q01DX009 (ip), vehicle: Klucel (hydroxypropylcellulose) (HPC)
[7] = dose: 100.0 mg/kg/injection, schedule: Q04DX003 (ip), vehicle: saline
[8] = dose: 200.0 mg/kg/injection, schedule: Q04DX003 (ip), vehicle: saline
[9] = dose: 400.0 mg/kg/injection, schedule: Q04DX003 (ip), vehicle: saline
[10] = dose: 75.0 mg/kg/injection, schedule: Q01DX001 (ip), vehicle: other
[11] = dose: 150.0 mg/kg/injection, schedule: Q01DX001 (ip), vehicle: other
[12] = dose: 100.0 mg/kg/injection, schedule: Q04DX003 (ip), vehicle: saline with Tween-80
[13] = dose: 100.0 mg/kg/injection, schedule: Q01DX001 (ip), vehicle: Klucel (hydroxypropylcellulose) (HPC)
[14] = dose: 200.0 mg/kg/injection, schedule: Q01DX001 (ip), vehicle: Klucel (hydroxypropylcellulose) (HPC)
[15] = dose: 400.0 mg/kg/injection, schedule: Q01DX001 (ip), vehicle: Klucel (hydroxypropylcellulose) (HPC)
[16] = dose: 200.0 mg/kg/injection, schedule: Q04DX003 (ip), vehicle: saline with Tween-80
[17] = dose: 400.0 mg/kg/injection, schedule: Q04DX003 (ip), vehicle: saline with Tween-80
[18] = dose: 100.0 mg/kg/injection, schedule: Q04DX002 (ip), vehicle: Klucel (hydroxypropylcellulose) (HPC)

Measured: T/C

CN/N=C/c1ccccc1
inactive: dose: 12.5 mg/kg/injection, schedule: Q01DX009 (ip), vehicle: saline with Tween-80 102 % of control | dose: 25.0 mg/kg/injection, schedule: Q01DX009 (ip), vehicle: saline with Tween-80 107 % of control | [1] 97 % of control and 112 % of control | [2] 95 % of control | [3] 92 % of control

C=CC1(C)CCC(=O)N1 (stereo unspecified)
inactive: dose: 75.0 mg/kg/injection, schedule: Q04DX003 (ip), vehicle: other 104 % of control | dose: 150.0 mg/kg/injection, schedule: Q04DX003 (ip), vehicle: other 98 % of control | dose: 300.0 mg/kg/injection, schedule: Q04DX003 (ip), vehicle: other 98 % of control

COc1cccc2c1C1c3ccccc3C(O)CC1CC2O (stereo unspecified)
inactive: dose: 37.5 mg/kg/injection, schedule: Q01DX001 (ip), vehicle: Klucel (hydroxypropylcellulose) (HPC) 89 % of control | dose: 75.0 mg/kg/injection, schedule: Q01DX001 (ip), vehicle: Klucel (hydroxypropylcellulose) (HPC) 104 % of control | dose: 150.0 mg/kg/injection, schedule: Q01DX001 (ip), vehicle: Klucel (hydroxypropylcellulose) (HPC) 91 % of control

CC(=O)CC(=O)Nc1ccc(C(=O)O)c(O)c1
inactive: [4] 93 % of control | [5] 87 % of control | [6] 93 % of control

Nc1ccn(CCCCc2ccccc2)c(=O)n1
inactive: dose: 100.0 mg/kg/injection, schedule: Q01DX001 (ip), vehicle: gum acacia 93 % of control | dose: 200.0 mg/kg/injection, schedule: Q01DX001 (ip), vehicle: gum acacia 95 % of control | dose: 400.0 mg/kg/injection, schedule: Q01DX001 (ip), vehicle: gum acacia 91 % of control

O=P(O)(O)c1cccc(Oc2ccccc2)c1
inactive: dose: 75.0 mg/kg/injection, schedule: Q01DX001 (ip), vehicle: saline 100 % of control | dose: 150.0 mg/kg/injection, schedule: Q01DX001 (ip), vehicle: saline 100 % of control

COc1ccc(NC(=O)c2ccc(C(=O)Nc3ccc(OC)cc3)cc2)cc1
inactive: [7] 92 % of control | [8] 97 % of control | [9] 92 % of control

CCOC(=O)c1[nH]c(C)c(C(=O)OCC)c1-c1ccccc1
inactive: dose: 100.0 mg/kg/injection, schedule: Q01DX001 (ip), vehicle: saline with Tween-80 98 % of control | dose: 200.0 mg/kg/injection, schedule: Q01DX001 (ip), vehicle: saline with Tween-80 106 % of control | dose: 400.0 mg/kg/injection, schedule: Q01DX001 (ip), vehicle: saline with Tween-80 100 % of control

O=C(NCc1ccccc1)Sc1ccccc1
inactive: dose: 87.5 mg/kg/injection, schedule: Q01DX001 (ip), vehicle: Klucel (hydroxypropylcellulose) (HPC) 96 % of control

CCOC(=O)/C=C1\CCCc2ccc(Cl)cc21
inactive: dose: 50.0 mg/kg/injection, schedule: Q04DX002 (ip), vehicle: saline with Tween-80 111 % of control | [2] 101 % of control and 104 % of control | [3] 101 % of control | dose: 400.0 mg/kg/injection, schedule: Q04DX002 (ip), vehicle: saline with Tween-80 101 % of control

C=C1C(=O)O[C@@H]2[C@H]3O[C@]3(C)CCC=C(C)CC[C@@H]12
inactive: dose: 6.25 mg/kg/injection, schedule: Q01DX009 (ip), vehicle: alcohol 97 % of control | dose: 12.5 mg/kg/injection, schedule: Q01DX009 (ip), vehicle: alcohol 103 % of control | dose: 25.0 mg/kg/injection, schedule: Q01DX009 (ip), vehicle: alcohol 95 % of control

CC(C)C1=CC23CCC4C(C)(C(=O)Cl)CCCC4(C)C2CC1C1(Br)C(=O)OC(=O)C31Br (stereo unspecified)
inactive: [10] 93 % of control | [11] 88 % of control | dose: 300.0 mg/kg/injection, schedule: Q01DX001 (ip), vehicle: other 91 % of control

CCCCCCCCP(=O)(O)CCCCCCCC
inactive: dose: 25.0 mg/kg/injection, schedule: Q04DX003 (ip), vehicle: saline with Tween-80 96 % of control | dose: 50.0 mg/kg/injection, schedule: Q04DX003 (ip), vehicle: saline with Tween-80 87 % of control | [12] 91 % of control

CCCCCCCC(=O)NCCCC
inactive: [4] 105 % of control | [7] 99 % of control | [5] 95 % of control | [8] 101 % of control | [6] 109 % of control | [9] 99 % of control

CCOC(=O)/C=C(/Nc1ccc(S(=O)(=O)F)cc1)c1ccccc1
inactive: [13] 104 % of control | [14] 100 % of control | [15] 98 % of control

O=C(NCCc1ccccc1)c1ccccc1
inactive: [12] 112 % of control | [16] 102 % of control | [17] 100 % of control

CC1(C)C/C(=N/O)C/C(=N\O)C1
inactive: dose: 25.0 mg/kg/injection, schedule: Q04DX003 (ip), vehicle: Klucel (hydroxypropylcellulose) (HPC) 95 % of control | dose: 50.0 mg/kg/injection, schedule: Q04DX003 (ip), vehicle: Klucel (hydroxypropylcellulose) (HPC) 96 % of control

OCSCc1c(Cl)c(Cl)c(Cl)c(Cl)c1Cl
inactive: [18] 103 % of control | dose: 200.0 mg/kg/injection, schedule: Q04DX002 (ip), vehicle: Klucel (hydroxypropylcellulose) (HPC) 103 % of control | dose: 400.0 mg/kg/injection, schedule: Q04DX002 (ip), vehicle: Klucel (hydroxypropylcellulose) (HPC) 98 % of control

CCOC(=O)/C=C1/Nc2cc(Cl)c(Cl)cc2NC1=O
inactive: [12] 97 % of control | [16] 95 % of control | [17] 89 % of control

CNC(=O)NC
inactive: [7] 94 % of control | [8] 102 % of control | [9] 94 % of control

CCCC(CCN(C)C)(CNC(=O)CN(CC)CC)c1cccc2ccccc12 (stereo unspecified)
inactive: dose: 50.0 mg/kg/injection, schedule: Q04DX002 (ip), vehicle: saline 105 % of control | dose: 100.0 mg/kg/injection, schedule: Q01DX009 (ip), vehicle: saline 99 % of control | dose: 100.0 mg/kg/injection, schedule: Q04DX002 (ip), vehicle: saline 100 % of control | dose: 200.0 mg/kg/injection, schedule: Q04DX002 (ip), vehicle: saline 100 % of control

NC(=Nc1ccc(N)cc1)C(N)=Nc1ccc(N)cc1
inactive: [1] 97 % of control | dose: 100.0 mg/kg/injection, schedule: Q01DX009 (ip), vehicle: saline with Tween-80 95 % of control and 98 % of control | [12] 96 % of control | dose: 200.0 mg/kg/injection, schedule: Q01DX009 (ip), vehicle: saline with Tween-80 106 % of control | [16] 98 % of control | dose: 400.0 mg/kg/injection, schedule: Q01DX009 (ip), vehicle: saline with Tween-80 96 % of control and 112 % of control | [17] 91 % of control

O=C(C1C(c2ccccc2)C1c1ccccc1)N(CCO)Cc1ccccc1 (stereo unspecified)
inactive: dose: 25.0 mg/kg/injection, schedule: Q04DX002 (ip), vehicle: Klucel (hydroxypropylcellulose) (HPC) 94 % of control | dose: 50.0 mg/kg/injection, schedule: Q04DX002 (ip), vehicle: Klucel (hydroxypropylcellulose) (HPC) 103 % of control | [18] 94 % of control

Cn1nnc2c1C(=O)c1ccccc1C2=O
inactive: dose: 100.0 mg/kg/injection, schedule: Q04DX003 (ip), vehicle: other 97 % of control | dose: 200.0 mg/kg/injection, schedule: Q04DX003 (ip), vehicle: other 97 % of control

CC(=O)CCC(C(=O)c1ccccc1)c1ccccc1 (stereo unspecified)
inactive: dose: 222.0 mg/kg/injection, schedule: Q01DX Z (ip), vehicle: methylcellulose (MC) 101 % of control

OC1(c2ccc(F)cc2)c2ccccc2-c2ccccc21
inactive: [10] 96 % of control | [11] 96 % of control

O=C(NCCCOc1ccc([N+](=O)[O-])cc1)OCc1ccccc1
inactive: dose: 100.0 mg/kg/injection, schedule: Q04DX003 (ip), vehicle: Klucel (hydroxypropylcellulose) (HPC) 109 % of control | dose: 200.0 mg/kg/injection, schedule: Q04DX003 (ip), vehicle: Klucel (hydroxypropylcellulose) (HPC) 107 % of control

CC(C)(C)c1ccc(OCCCOc2ccc(C(=O)O)cc2)cc1
inactive: [13] 97 % of control | dose: 100.0 mg/kg/injection, schedule: Q01DX009 (ip), vehicle: saline sonified 103 % of control | [14] 103 % of control | dose: 200.0 mg/kg/injection, schedule: Q01DX009 (ip), vehicle: saline sonified 118 % of control | [15] 100 % of control | dose: 400.0 mg/kg/injection, schedule: Q01DX009 (ip), vehicle: saline sonified 94 % of control

CC(=O)CC(=O)Nc1cccc(Cl)c1C
inactive: [4] 89 % of control | [5] 89 % of control
